Experimental data as given in US7014844B2, “Lightening compositions and methods of use” (Avon Products, Inc., priority 2001, dated 2006).

Legend:
[1] = tested on: Reconstituted Human Epidermis (keratinocytes and Type IV melanocytes); experiment: Reconstructed Pigmented Epidermal Tissue Assay; assay type: cell-based; details: 0.1 wt %; treated 14 days; absorbance at 490 nm
Procedure: A composition containing 0.1 wt % N, N, S (tris) carboxylmethyl cysteamine was tested in a Reconstructed Pigmented Epidermal Tissue Assay. Reconstituted Human Epidermis (tissue) consisting of keratinocytes and Type IV (Fitzpatrick scale) melanocytes (Skin Ethic, France) were grown in maintenance medium obtained from the tissue supplier. This model consists of melanocytes and keratinocytes and the pigmentation of the skin-equivalent is due to melanin. The tissue remained viable through the course of the experimental treatment and actively synthesized and transferred melanin. The skin equivalents were treated for 14 days with the active materials of the present invention and a measure of melanin was obtained by measuring absorbance of the tissue at 490 nm. All studies were conducted in 6-well tissue culture dishes (Falcon), at 37° C. and 5% CO2. All test articles were dissolved in medium. Tissues were fed 1 ml of medium with the active material or medium alone was used as the control. […] After 14 days the tissues were transferred to a 24-well tissue culture dish (Falcon), and pigmentation was assessed using a Packard microplate reader at 490 nm. […] A control baseline reading had been taken on day 2 after the models had equilibrated and used as a baseline tissue pigmentation value. The baseline reading was subtracted from the final readings to eliminate inherent absorbance by the tissue. […]

[2] = molecular target: T1, DOPAchrome tautomerase (Mus musculus, UniProt P29812); experiment: DOPAchrome tautomerase (DCT) assay; assay type: biochemical; details: 0.05 wt %; cell extract; phenylthiourea 1 mM; 475 nm
T1 construct: DCT was assayed spectrophotometrically by adding up to 0.1 ml cell extract; endogenous in cells
T1 sequence (P29812 24-517): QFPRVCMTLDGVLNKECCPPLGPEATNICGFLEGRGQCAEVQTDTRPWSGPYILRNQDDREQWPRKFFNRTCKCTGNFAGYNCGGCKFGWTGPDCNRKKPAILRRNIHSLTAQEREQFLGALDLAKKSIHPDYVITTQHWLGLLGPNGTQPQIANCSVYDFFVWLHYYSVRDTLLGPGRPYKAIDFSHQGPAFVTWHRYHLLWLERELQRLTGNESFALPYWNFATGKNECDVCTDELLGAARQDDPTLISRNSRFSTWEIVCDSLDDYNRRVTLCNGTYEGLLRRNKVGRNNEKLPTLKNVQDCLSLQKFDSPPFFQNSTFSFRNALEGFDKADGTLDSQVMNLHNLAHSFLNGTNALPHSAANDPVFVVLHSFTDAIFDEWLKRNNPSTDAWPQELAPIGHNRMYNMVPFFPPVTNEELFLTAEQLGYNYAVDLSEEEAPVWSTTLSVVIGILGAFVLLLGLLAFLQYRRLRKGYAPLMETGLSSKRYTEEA
Procedure: DOPAchrome tautomerase (DCT) activity was assayed according to the method disclosed in Chakraborty et al., 1998, Effect of arbutin on melanogenic proteins in human melanocytes, Pigment Cell Res. 11: 206–212. Specifically, ice-cold DOPA (0.5 mg per ml of 0.1 M sodium phosphate buffer, pH 6.8) was mixed with Ag2O (30 mg Ag2O: 1 mg DOPA) for about 1 minute and filtered through a 0.22 μm Millipore filter. DCT was assayed spectrophotometrically by adding up to 0.1 ml cell extract to 0.5 ml of a solution of freshly prepared DOPAchrome (˜0.5 mg/ml). Reactions were carried out at room temperature in plastic cuvettes, and the disappearance of absorption at 475 nm was followed. Phenylthiourea (1 mM) was added to the reaction mixture, because the presence of tyrosinase in the cell extract can interfere with the assay. The percentage conversion of DOPAchrome was calculated per mg of protein extract and normalized against the control.

[3] = molecular target: T2, tyrosinase (Mus musculus, UniProt P11344); experiment: Tyrosinase assay; assay type: biochemical; details: 0.05 wt %; mouse melanoma cell extract; DOPA substrate; 475 nm
T2 construct: Tyrosinase was assayed spectrophotometrically by adding up to 0.1 ml cell extract; endogenous in cells
T2 sequence (P11344 19-533): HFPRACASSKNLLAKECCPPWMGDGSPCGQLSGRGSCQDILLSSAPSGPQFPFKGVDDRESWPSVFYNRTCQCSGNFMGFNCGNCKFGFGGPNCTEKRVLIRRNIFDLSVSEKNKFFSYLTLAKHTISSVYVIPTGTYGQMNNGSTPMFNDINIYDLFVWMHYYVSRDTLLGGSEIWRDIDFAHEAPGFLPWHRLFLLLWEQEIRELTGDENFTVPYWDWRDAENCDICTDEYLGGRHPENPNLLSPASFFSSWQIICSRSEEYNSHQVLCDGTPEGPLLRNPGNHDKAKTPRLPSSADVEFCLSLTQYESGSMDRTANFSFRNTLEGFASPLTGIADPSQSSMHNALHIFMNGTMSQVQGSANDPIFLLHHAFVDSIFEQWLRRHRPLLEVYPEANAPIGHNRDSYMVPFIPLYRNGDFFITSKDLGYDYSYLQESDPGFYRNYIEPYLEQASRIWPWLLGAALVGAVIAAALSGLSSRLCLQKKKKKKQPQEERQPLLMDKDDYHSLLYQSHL
Procedure: A tyrosinase assay was performed according to the method outlined in Chakraborty et al., 1989, Melanogenic regulatory factors in coated vesicles from melanoma cells, J. Invest. Dermatol. 93: 616–620. Specifically, mouse melanoma cells were dissolved with the addition of 0.1 M sodium phosphate buffer, pH 6.8, containing Triton X-100 (1% vol/vol), at a ratio of 1-5×10^6 cells/ml. After 10 minutes on ice, the extracts were centrifuged at 4° C. (10,000 g, for 10 minutes) and the supernatant fractions were assayed for tyrosinase. Tyrosinase was assayed spectrophotometrically by adding up to 0.1 ml cell extract to 0.2 ml of a solution of freshly prepared DOPA (˜0.5 mg/ml), in a total volume of 0.5 ml of 0.1 M sodium phosphate buffer, pH 6.8. Reactions were carried out at 37° C. in plastic cuvettes, and the appearance of absorption at 475 nm was followed.

[4] = tested on: DHICA polymerase; experiment: DHICA polymerase assay; assay type: biochemical; details: 0.05 wt %; wheat germ agglutinin eluate; 4 hours; 400 nm
Procedure: A DHICA polymerase assay was performed according to the method disclosed in Chakraborty et al., 1996, Polymerization of 5, 6-dihydroxyindole-2-Carboxylic acid to melanin by the pmell7/silver locus protein, Eur. J. Biochem. 236: 180–188. Specifically, the cell extract (0.5 ml, 150–200 μg protein) was passed through a wheat germ agglutinin column (1 ml bed volume) equilibrated with lysis buffer. The bound material was eluted with 0.5 ml 1M N-acetyl glucosamine, which contains crude DHICA polymerization factor and other melanogenic proteins. A reaction mixture of 0.5 ml containing either the enzyme preparation to be measured (20 μg protein from wheat germ agglutinin eluates) or the appropriate buffer blank, DHICA (0.5 mM), and 100 mM sodium phosphate buffer, pH 7.0. Phenylthiourea was also included to inhibit endogenous tyrosinase activity in the preparation.
Spectrophotomeric reading of the absorbance of the reaction mixture was taken at T=0 and T=4 hours time points at 400 nm. […] An increase in absorbance over that seen in blank tubes was defined as specific DHICA polymerization factor activity.

- average decrease in DOPAchrome conversion as compared to the control [2]: 65%
- average decrease in tyrosinase conversion as compared to the control [3]: 36%
- average decrease in DHICA Polymerase conversion compared to the control [4]: 58%
Structure (SMILES): O=C(O)CSCCN(CC(=O)O)CC(=O)O [N, N, S (tris) carboxylmethyl cysteamine]
- reduction of reconstructed epidermal tissue pigmentation in comparison to control tissue [1]: about 40%
